The conditions of data set [1]: humans; ref 14 (Wijnands et al.); cited from earlier work.
Another data set concerns CYP1A. The conditions noted are these: hepatic microsomes from Beagles; ref 13 (Regmi et al.); cited from earlier work.
Data set [2] in a line: Pharmacokinetics of p-acetaminophen in Bactrian camels, substrate only. The class given is in vivo, Bactrian camel. The note with it: Group 1, substrate only, 4 mg/kg intramuscular.
The test system of another data set is CYP1A enzyme. The class given is in vivo, Bactrian camel. The conditions noted are these: Group 2, inhibitor (lomefloxacin) + substrate; p-acetaminophen 4 mg/kg intramuscular.
For data set [3] the following is noted: p-acetaminophen injected into porcine animals; ref 7 (Qiu et al.); cited from earlier work.
For data set [4] the following is noted: healthy cattle, oral administration; ref 8 (Sawaguchi et al.); cited from earlier work.
For data set [5] the following is noted: rats, intramuscular injection; ref 9 (Yamasaki et al.); cited from earlier work.

Usually Cmax stands for the peak of the concentration-time curve. For orientation: Tmax means the time from dosing to the highest level. For orientation: MRT means a mean duration of stay, worked out from the concentration-time curve.

Read-outs that look alike come from different tables or passages of the source.

For the molecule `CCn1cc(C(=O)O)c(=O)c2cc(F)c(N3CCNCC3)nc21` [enoxacin], the “effect on total body clearance of theophylline” value in data set [1] is listed as “significantly decreased”.

Consider `CCN1CCN(c2cc3c(cc2F)c(=O)c(C(=O)O)cn3C2CC2)CC1` [enrofloxacin], for which, in the data set with CYP1A, the CYP1A-inhibiting effect entry is “inhibited CYP1A in a non-competitive manner”.

Regarding `CCn1cc(C(=O)O)c(=O)c2cc(F)c(N3CCNCC3)cc21` [norfloxacin], the CYP1A-inhibiting effect result in the data set on CYP1A is recorded as “inhibited CYP1A in a non-competitive manner”.

For the molecule `CC1COc2c(N3CCN(C)CC3)c(F)cc3c(=O)c(C(=O)O)cn1c23` (centres unmarked) [ofloxacin], the CYP1A-inhibiting effect entry in the data set with CYP1A is on record as “inhibited CYP1A in a non-competitive manner”.

In the case of `C[C@@H]1CN(c2c(F)c(F)c3c(=O)c(C(=O)O)cn(C4CC4)c3c2F)C[C@H](C)N1` [orbifloxacin], the CYP1A-inhibiting effect entry in the data set with CYP1A is “inhibited CYP1A in a non-competitive manner”.

As for `CC(=O)Nc1ccc(O)cc1` [p-acetaminophen], the “Vd (volume of distribution under steady-state)” value in data set [2] is 4,416.8 ± 138.23 mL/kg. In data set [2] (plasma), the AUC0-t was determined as 5730 ± 310 ng·h/mL, the “AUC0-∞” value worked out at 6010 ± 630 ng·h/mL, the highest concentration (Cmax) came to 960 ± 430 ng/mL and the Tmax is listed as 1.70 ± 0.51 h. Besides, in the data set with CYP1A enzyme, the AUC0-t is 8880 ± 230 ng·h/mL, the “AUC0-∞” value amounted to 9150 ± 630 ng·h/mL, the Cmax stood at 1220 ± 660 ng/mL and the Tmax came out at 0.833 ± 0.37 h. In the data set with CYP1A enzyme, the “Vd (volume of distribution under steady-state)” value is given as 3,934.0 ± 90.03 mL/kg. Further, in data set [3], the AUC0-t was 23950 ± 6980 ng·h/mL, the T1/2 was 1.76 ± 0.91 h and the Tmax was 0.41 ± 0.13 h. Also, in data set [4], the MRT is recorded as 4.70 ± 0.93 h, the T1/2 is recorded as 2.41 ± 0.58 h and the Tmax was 1.40 ± 0.55 h. Besides, in data set [5], the mean residence time (MRT) is listed as 0.40 ± 0.03 h and the T1/2 was 0.30 ± 0.02 h.

These data come from article PMC6538516 (Journal of Veterinary Science, 2019).
